The results in this text go back to patent US5972671A, “Fructosyl amino acid oxidase and process for producing the same” (Kyoto Daiichi Kagaku Co., Ltd., priority 1994, dated 1999).

Read-outs that look alike come from different tables or passages of the source.

The subject of assay [1] is FLOD-S derived from S-1F4 strain. The assay can be described thus: Effect of various inhibitors on activity of FLOD-S; stabilization. The assay is classed as biochemical, Fusarium oxysporum S-1F4.
Protocol: In the present test, the final concentration of PCMB (parachloro mercuric benzoate) is 0.1 mM while that of others 1 mM. The stabilization effect was examined by dialyzing the mixture overnight against 50 mM Tris-HCl buffer (pH 8.5) containing 2 mM dithiothreitol (DTT) and measuring the enzyme activity.
The test system of assay [2] is FLOD-G derived from Gibberella fujikuroi. Briefly: Effect of various inhibitors on the activity of FLOD-G; stabilization. The assay is classed as biochemical.
Protocol: The inhibitory effect of various substances was tested in a manner substantially analogous to that described in (1) above. The stabilization effect was examined by dialyzing overnight against 50 mM Tris-HCl buffer (pH 8.5) containing 2 mM DTT and measuring the activity.
Assay [3] deals with FLOD-S derived from S-1F4 strain. Briefly: Effect of metal ion on the activity of FLOD-S. The assay is classed as biochemical, Fusarium oxysporum S-1F4. How it is done:
After 5 minutes of incubation at 30° C., the enzyme activity was evaluated.

Assay [4] relates to FLOD-G derived from Gibberella fujikuroi (IFO No. 6605). Briefly: Effect of metal ion on the activity of FLOD-G. The assay is classed as biochemical. The protocol:
Then, the enzyme activity was evaluated.

Assay [5] deals with FLOD-S derived from S-1F4 strain. Briefly: Substrate specificity of FLOD-S (hydrogen peroxide generation).
Protocol: The partially purified enzyme was prepared in the following manner. Thus, S-1F4 strain was grown in a GL brown-colored medium for 24 hours and the culture was filtered with suction to harvest mycelia. The mycelia were then washed, suspended in 0.1 M Tris-HCl buffer (pH 8.5), ground by means of Dino-Mill and centrifuged. The centrifugal supernatant is fractionated with ammonium sulfate and purified using DEAE-Sephacel ion-exchange chromatography to obtain the partially purified enzyme. The purified enzyme was prepared according to the method described in Example 1 below.
A 50 mM FZL solution was prepared by dissolving FZL previously obtained in distilled water. To a mixture of 100 μl of 45 mM 4-aminoantipyrine, 100 μl of peroxidase (60 U/ml), 100 μl of 60 mM phenol, 1 ml of 0.1 M Tris-HCl buffer (pH 8.0) and 50 μl of enzyme solution was added distilled water to give a total volume of 2.9 ml and the solution was allowed to equilibrate at 30° C. After the addition of 100 μl of 50 mM FZl solution, the time-course of absorbance at 505 nm was measured. The amount (μmol) of hydrogen peroxide produced in one minute was calculated on the basis of a molar absorption coefficient (5.16×10^3 M^-1 cm^-1) of a quinone pigment produced. The resultant numerical value was taken as a unit(U) of enzyme activity.
Assay [6] relates to FLOD-G derived from Gibberella fujikuroi. The assay can be described thus: Substrate specificity of FLOD-G.
Protocol: To a mixture of 100 μl of 45 mM 4-aminoantipyrine, 100 μl of peroxidase solution (60 U/ml), 100 μl of 60 mM phenol, 1 ml of 0.1 M Tris-HCl buffer (pH 8.0) and 50 μl of enzyme solution, was added distilled water to give a total volume of 2.95 ml and the solution was allowed to be equilibrated at 30° C. After the addition of 50 μl of 100 mM FZL solution, the time-course of absorbance at 505 nm was measured. The amount (μmol) of hydrogen peroxide produced in one minute was calculated on the basis of a molar absorption coefficient (5.16×10^3 M^-1 cm^-1) of a quinone pigment produced. The resultant numerical value was taken as a unit (U) of enzyme activity.
Where [7] appears, read: inhibitor (mM), concentration not given, None = 100.
Where [8] appears, read: metal 1 mM, 0.1 M Tris-HCl pH 8.0, 5 minutes at 30° C., None = 100.
[9] abbreviates: metal 1 mM, 0.1 M Tris-HCl pH 8.0, pre-incubated 5 minutes at 30° C., None = 100.
[10] abbreviates: partially purified FLOD-S, substrate 0.018%.

With `O[C@H](CS)[C@H](O)CS` (racemic) [dithiothreitol], in assay [1] (pH 8.5), the “Stabilization of FLOD-S” value was “stabilized”. Besides, the “Stabilization of FLOD-G” value in assay [2] (dialysis overnight against 50 mM Tris-HCl buffer (pH 8.5) containing 2 mM DTT) was “stabilized”.
As for `O=C(O)c1cc(SSc2ccc([N+](=O)[O-])c(C(=O)O)c2)ccc1[N+](=O)[O-]` [5,5',-Dithiobis(2-nitrobenzoic acid)], the “Specific activity (%)” value in assay [1] (reagent 1 mM, None = 100) is 95%; in assay [2] (setting [7]), 76%.
For the compound `O=[N+]([O-])[O-].[Ag+]` [AgNO3], in assay [3] (metal 1 mM), the “Inhibition of FLOD-S activity by metal ion” value is “completely inhibited”. The “Specific activity (%)” value in assay [3] (setting [8]) and in assay [4] (setting [9]) was 0% throughout. Further, the “Inhibition of FLOD-G activity by metal ion” value in assay [4] (metal 1 mM) was “completely inhibited”.
In the case of `N=C(N)NN` [Aminoguanidine], the “Specific activity (%)” value in assay [1] (reagent 1 mM, None = 100) is 66%; in assay [2] (setting [7]), 50%. Further, the “Inhibition of FLOD-G activity by inhibitor” value in assay [2] is recorded as “strongly inhibited”.
As to `[Ba+2].[Cl-].[Cl-]` [BaCl2], the entries for the “Specific activity (%)” value in assay [3] (setting [8]) and in assay [4] (setting [9]) were 60% and 103%, respectively.
On the same counts, the results for `[Ca+2].[Cl-].[Cl-]` [CaCl2] are 77% and 97%.
Consider `C#CCN(C)CCCOc1ccc(Cl)cc1Cl` [Clorgyline], for which, in assay [1] (reagent 1 mM, None = 100), the “Specific activity (%)” value turned out to be 132%.
As for `O=S(=O)([O-])[O-].[Co+2]` [CoSO4], the entries for the “Specific activity (%)” value in assay [3] (setting [8]) and in assay [4] (setting [9]) were 42% and 15%, respectively. The “Inhibition of FLOD-G activity by metal ion” value in assay [4] (metal 1 mM) is “inhibited”.
Regarding `[Cl-].[Cs+]` [CsCl2], the “Specific activity (%)” value is listed as 102% in assay [3] (setting [8]) and 97% in assay [4] (setting [9]).
For the compound `[Cl][Cu][Cl]` [CuCl2], the “Inhibition of FLOD-S activity by metal ion” value in assay [3] (metal 1 mM) is listed as “completely inhibited”. Further, the “Specific activity (%)” value in assay [3] (setting [8]) is reported as 0%; in assay [4] (setting [9]) it was 2%. In assay [4] (metal 1 mM), the “Inhibition of FLOD-G activity by metal ion” value is on record as “inhibited”.
For the compound `C#CCN(C)C(C)Cc1ccccc1` (stereo not shown) [Deprenyl], the “Specific activity (%)” value is listed as 102% in assay [1] (reagent 1 mM, None = 100) and 81% in assay [2] (setting [7]).
Turning to `O=C(O)CN(CCN(CC(=O)O)CC(=O)O)CC(=O)O` [EDTA], the “Specific activity (%)” value in assay [2] is listed as 81%.
Turning to `[Cl][Fe]([Cl])[Cl]` [FeCl3], the “Specific activity (%)” value in assay [3] (setting [8]) was found to be 67%; in assay [4] (setting [9]), 16%. Moreover, in assay [4] (metal 1 mM), the “Inhibition of FLOD-G activity by metal ion” value is “inhibited”.
Take `O=S(=O)([O-])[O-].[Fe+2]` [FeSO4]: the “Specific activity (%)” value in assay [3] (setting [8]) was found to be 97%; in assay [4] (setting [9]), 74%.
As to `O=C(N[C@@H](CCCCNCC(=O)[C@@H](O)[C@H](O)[C@H](O)CO)C(=O)O)OCc1ccccc1` [Fructosyl N^α -Z-lysine, fructosyl N^α -Z-lysine], the “Specificity of FLOD-S to substrate” value in assay [5] is given as “remarkably specific”.
`[Cl][Hg][Cl]` [HgCl2]: the “Inhibition of FLOD-S activity by metal ion” value in assay [3] (metal 1 mM) is “completely inhibited”. The entries for the “Specific activity (%)” value in assay [3] (setting [8]) and in assay [4] (setting [9]) were 0% and 25%, respectively. Moreover, in assay [4] (metal 1 mM), the “Inhibition of FLOD-G activity by metal ion” value was “inhibited”.
Take `NN` [Hydrazine]: in assay [1], the “Inhibition of FLOD-S activity by inhibitor” value is recorded as “inhibited”. Besides, the “Specific activity (%)” value in assay [1] (reagent 1 mM, None = 100) amounted to 13%; in assay [2] (setting [7]), 14%. Moreover, the “Inhibition of FLOD-G activity by inhibitor” value in assay [2] was “strongly inhibited”.
For the compound `NO` [Hydroxylamine], the “Specific activity (%)” value in assay [1] (reagent 1 mM, None = 100) is reported as 21%; in assay [2] (setting [7]), 16%. Moreover, in assay [2], the “Inhibition of FLOD-G activity by inhibitor” value is listed as “strongly inhibited”.
As to `O=C(O)CI` [Iodoacetic acid], the “Specific activity (%)” value in assay [1] stood at 102%; in assay [2] it was 77%.
Regarding `[Cl-].[K+]` [KCl], the entries for the “Specific activity (%)” value in assay [3] (setting [8]) and in assay [4] (setting [9]) were 104% and 98%, respectively.
On the same counts, the results for `[Cl-].[Li+]` [LiCl] are 100% and 96%.
On the same counts, the results for `[Cl-].[Cl-].[Mg+2]` [MgCl2] are 75% and 94%.
On the same counts, the results for `[Cl][Mn][Cl]` [MnCl2] are 154% and 115%.
Turning to `[Cl-].[Na+]` [NaCl], the “Specific activity (%)” value stood at 107% in assay [3] (pH 8) and 97% in assay [4] (pH 8).
Take `c1cnc2c(c1)ccc1cccnc12` [O-Phenanthrolene]: the “Specific activity (%)” value is given as 103% in assay [1] (reagent 1 mM, None = 100) and 78% in assay [2] (setting [7]).
Consider `O=C(O)c1cc[c]([Hg][Cl])cc1` [PCMB, parachloro mercuric benzoate], for which the “Inhibition of FLOD-S activity by inhibitor” value in assay [1] (PCMB 0.1 mM, others 1 mM) was “completely inhibited”. Further, the “Specific activity (%)” value in assay [1] (reagent 0.1 mM, None = 100) is 0%; in assay [2] (inhibitor 0.1 mM, None = 100), 51%. Also, the “Inhibition of FLOD-G activity by inhibitor” value in assay [2] is on record as “strongly inhibited”.
Consider `NNc1ccccc1` [Phenylhydrazine], for which the “Inhibition of FLOD-S activity by inhibitor” value in assay [1] is on record as “inhibited”. The “Specific activity (%)” value is 2.6% in assay [1] (reagent 1 mM, None = 100) and 13% in assay [2] (setting [7]). For the same compound, the “Inhibition of FLOD-G activity by inhibitor” value in assay [2] is recorded as “strongly inhibited”.
In the case of `[Cl-].[Rb+]` [RbCl], the “Specific activity (%)” value is recorded as 103% in assay [3] (setting [8]) and 97% in assay [4] (setting [9]).
For `NNC(N)=O` [Semicarbazide], the “Specific activity (%)” value was determined as 103% in assay [1] (reagent 1 mM, None = 100) and 77% in assay [2] (setting [7]).
On the same counts, the results for `[N-]=[N+]=[N-]` [Sodium azide] are 101% and 78%.
Take `O=S(=O)([O-])[O-].[Zn+2]` [ZnSO4]: the “Inhibition of FLOD-S activity by metal ion” value in assay [3] (metal 1 mM) is on record as “completely inhibited”. The “Specific activity (%)” value in assay [3] (setting [8]) is reported as 0%; in assay [4] (setting [9]) it was 33%. Besides, the “Inhibition of FLOD-G activity by metal ion” value in assay [4] (metal 1 mM) was “inhibited”.
On to `c1ccc(-c2ccccn2)nc1` [α,α'-Dipyridyl], for which the “Specific activity (%)” value in assay [1] (reagent 1 mM, None = 100) is 106%; in assay [2] (setting [7]), 78%.
Regarding Fructosyl poly-L-lysine, the “Activity of FLOD-G on substrate” value in assay [6] is on record as “active”. Further, the “Specific activity (%)” value in assay [6] (FLOD-G, substrate 0.017%) came to 1.0%; in assay [5] (setting [10]) it was 2.3%; in assay [5] (purified FLOD-S, substrate 0.02%), 2.3%. In assay [5], the “Specificity of FLOD-S to substrate” value is “specific”. For the same compound, the Activity in assay [5] (setting [10]) was 0.0738 U/ml.
